Laboratory results published in patent US20120321590A1, “BRIDGED POLYCYCLIC COMPOUNDS” (priority 2011, published 2012).
Where two headings read alike, the source gives them in different places.

What was measured:
Assay type in all cases: cell-based, HCV
[1] = test system: genotype 1b (Con1) dicistronic subgenomic replicon; assay: Transient replicon assay, genotype 1b; settings: Huh7-Lunet cells transfected with replicon RNA, cultured 4 days, luciferase activity
Experimental: (§1) The transient replicon assay utilizes the genotype 1b (Con1) dicistronic subgenomic replicon. Genotype 1a activity was determined using a chimeric replicon containing the genotype 1b sequence for NS3 through NS5A nonstructural proteins and genotype 1a (H77) sequence for the NS5B region.
(§2) The RNA transcripts were generated using the Megascript T7 kit (Applied Biosystems, Foster City, Calif.). Exponentially growing Huh7-Lunet cells were mixed with 4 μg of replicon RNA and plated into a 96-well plate Gene Pulser MXcell Electroporation System (Bio-Rad, Hercules, Calif.). Electroporation was immediately performed at 250 V and 750 μF capacitance with a single exponential waveform pulse. Transfected cells were transferred to Dulbecco modified Eagle medium in the presence of 10% FBS and plated into 96-well plates with 7,500 cells per well. Compounds at various concentrations were added to the cells after 2 hours and were cultured for 4 days. The cells were lysed with the Bright-Glo Reagent (Promega, Madison, Wis.) and luciferase activity was measured with a luminometer (Wallac 1420 Multilabel HTS Counter Victor 2). The background control was replicon cells treated with 100 nM BILN-2061, an inhibitor of the HCV protease. Dose responses were performed in triplicate and the values were averaged. All experiments were repeated at least three times to verify the reproducibility.
(§3) The EC50 values were determined using a standard four-parameter dose response equation.

[2] = Transient replicon assay, genotype 1a chimeric replicon; settings: Hepatitis C virus, genotype 1a / genotype 1b, Huh-7, 96 h, read-out: EC50 1a, Huh7-Lunet cells transfected with chimeric replicon RNA, cultured 4 days, luciferase activity
Experimental: as §1, §2, §3

[3] = test system: chimeric replicon containing the genotype 1b sequence for NS3 through NS5A and genotype 1a (H77) sequence for the NS5B region; assay: as above
Experimental: as §1, §2, §3

[4] = read-out: EC50 1a; Huh7-Lunet cells transfected with chimeric replicon RNA, cultured 4 days, luciferase activity

| Compound | EC50 ([1]; Hepatitis C virus, Huh-7, 96 h) | EC50 [2] | EC50 [1] | EC50 ([3]; Huh7-Lunet cells transfected with chimeric replicon RNA, cultured 4 days, luciferase activity; read-out: EC50 1a) | EC50 [3, 4] |
| --- | --- | --- | --- | --- | --- |
| CS(=O)(=O)Nc1ccc2c(c1)S(=O)(=O)N=C(C1=C(O)[C@@H]3C4C5C6CC7C4C7C(C65)[C@@H]3N(Cc3ccc(F)cc3)C1=O)N2 (racemic) [Example 1, rac-N-{3-[(4S,9R)-5-[(4-Fluorophenyl)methyl]-8-hydroxy-6-oxo-5-azahexacyclo[8.5.0.0^2,15.0^3,12.0^4,9.0^11,13]pentadec-7-en-7-yl]-1,1-dioxo-4H-1λ^6,2,4-benzothiadiazin-7-yl}methanesulfonamide] | 2 nM | 12 nM |  |  |  |
| CS(=O)(=O)NCc1csc2c1S(=O)(=O)N=C(C1=C(O)[C@@H]3C4C5C6CC7C4C7C(C65)[C@@H]3N(Cc3ccc(F)cc3)C1=O)N2 (racemic) [Example 4, rac-N-({3-[(4S,9R)-5-[(4-Fluorophenyl)methyl]-8-hydroxy-6-oxo-5-azahexacyclo[8.5.0.0^2,15.0^3,12.0^4,9.0^11,13]pentadec-7-en-7-yl]-1,1-dioxo-4H-1λ^6,5,2,4-thieno[2,3-e][1λ^6,2,4]thiadiazin-7-yl}methyl)methanesulfonamide] |  |  | 1 nM | 42 nM |  |
| CS(=O)(=O)Nc1ccc2c(c1)S(=O)(=O)N=C(C1=C(O)[C@@H]3C4CC5CC(C4)CC(C5)[C@@H]3N(Cc3ccc(F)cc3)C1=O)N2 (racemic) [Example 5, rac-N-{3-[(2S,7R)-3-[(4-Fluorophenyl)methyl]-6-hydroxy-4-oxo-3-azatetracyclo[8.3.1.1^8,12.0^2,7]pentadec-5-en-5-yl]-1,1-dioxo-4H-1λ^6,2,4-benzothiadiazin-7-yl}methanesulfonamide] | 11 nM | 193 nM |  |  |  |
| CS(=O)(=O)NCc1csc2c1S(=O)(=O)N=C(C1=C(O)[C@@H]3C4CC5CC(C4)CC(C5)[C@@H]3N(Cc3ccc(F)cc3)C1=O)N2 (racemic) [Example 6, rac-N-({3-[(2S,7R)-3-[(4-Fluorophenyl)methyl]-6-hydroxy-4-oxo-3-azatetracyclo[8.3.1.1^8,12.0^2,7]pentadec-5-en-5-yl]-1,1-dioxo-4H-1λ^6,5,2,4-thieno[2,3-e][1λ^6,2,4]thiadiazin-7-yl}methyl)methanesulfonamide] | 42 nM | 696 nM |  |  |  |
| CS(=O)(=O)Nc1ccc2c(c1)S(=O)(=O)N=C(C1=C(O)[C@@H]3C4C5CC6C4C6C5[C@@H]3N(Cc3ccc(F)cc3)C1=O)N2 (mixture of isomers) [Example 7, rac-N-{3-[(1R,9S)-10-[(4-Fluorophenyl)methyl]-13-hydroxy-11-oxo-10-azapentacyclo[7.4.0.0^2,7.0^3,5.0^4,8]tridec-12-en-12-yl]-1,1-dioxo-4H-1λ^6,2,4-benzothiadiazin-7-yl}methanesulfonamide] | 4 nM |  |  |  | 137 nM |
| CS(=O)(=O)Nc1ccc2c(c1)S(=O)(=O)N=C(C1=C(O)[C@@H]3C4C5CC6C4C6C5[C@@H]3N(Cc3ccc(F)cc3)C1=O)N2 (mixture of isomers) [Example 8, rac-N-{3-[(1R,9S)-10-[(4-Fluorophenyl)methyl]-13-hydroxy-11-oxo-10-azapentacyclo[7.4.0.0^2,7.0^3,5.0^4,8]tridec-12-en-12-yl]-1,1-dioxo-4H-1λ^6,2,4-benzothiadiazin-7-yl}methanesulfonamide] |  |  | 4 nM |  | 336 nM |
| CS(=O)(=O)NCc1csc2c1S(=O)(=O)N=C(C1=C(O)[C@@H]3C4C5CC6C4C6C5[C@@H]3N(Cc3ccc(F)cc3)C1=O)N2 (mixture of isomers) [Example 9, rac-N-({3-[(1R,9S)-10-[(4-Fluorophenyl)methyl]-13-hydroxy-11-oxo-10-azapentacyclo[7.4.0.0^2,7.0^3,5.0^4,8]tridec-12-en-12-yl]-1,1-dioxo-4H-1λ^6,5,2,4-thieno[2,3-e][1λ^6,2,4]thiadiazin-7-yl}methyl)methanesulfonamide] | 5 nM | 171 nM |  |  |  |
| CS(=O)(=O)Nc1ccc2c(c1)S(=O)(=O)N=C(C1=C(O)C3C4C5C6C7C4C7C(C56)C3N(Cc3ccc(F)cc3)C1=O)N2 (racemic) [Example 10, rac-N-{3-[(1R,10S)-11-[(4-Fluorophenyl)methyl]-14-hydroxy-12-oxo-11-azahexacyclo[8.4.0.0^2,70.0^3,5.0^4,9.0^6,8]tetradec-13-en-13-yl]-1,1-dioxo-4H-1λ^6,2,4-benzothiadiazin-7-yl}methanesulfonamide] | 1 nM | 8 nM |  |  |  |
| CS(=O)(=O)NCc1csc2c1S(=O)(=O)N=C(C1=C(O)C3C4C5C6C7C4C7C(C56)C3N(Cc3ccc(F)cc3)C1=O)N2 (racemic) [Example 13, rac-N-({3-[(1R,10S)-11-[(4-Fluorophenyl)methyl]-14-hydroxy-12-oxo-11-azahexacyclo[8.4.0.0^2,7.0^3,5.0^4,9.0^6,8]tetradec-13-en-13-yl]-1,1-dioxo-4H-1λ^6,5,2,4-thieno[2,3-e][1λ^6,2,4]thiadiazin-7-yl}methyl)methanesulfonamide] | 2 nM | 36 nM |  |  |  |
| CS(=O)(=O)Nc1ccc2c(c1)S(=O)(=O)N=C(C1=C(O)C3C4C5C6C4C4C6C5C4C3N(Cc3ccc(F)cc3)C1=O)N2 (racemic) [Example 14, rac-N-{3-[(1R,10S)-11-[(4-fluorophenyl)methyl]-14-hydroxy-12-oxo-11-azahexacyclo[8.4.0.0^2,5.0^3,8.0^4,7.0^6,9]tetradec-13-en-13-yl]-1,1-dioxo-4H-1λ^6,2,4-benzothiadiazin-7-yl}methanesulfonamide] | 2 nM | 43 nM |  |  |  |
| CS(=O)(=O)NCc1csc2c1S(=O)(=O)N=C(C1=C(O)C3C4C5C6C4C4C6C5C4C3N(Cc3ccc(F)cc3)C1=O)N2 (racemic) [Example 15, rac-N-({3-[(1R,10S)-11-[(4-fluorophenyl)methyl]-14-hydroxy-12-oxo-11-azahexacyclo[8.4.0.0^2,5.0^3,8.0^4,7.0^6,9]tetradec-13-en-13-yl]-1,1-dioxo-4H-1λ^6,5,2,4-thieno[2,3-e][1λ^6,2,4]thiadiazin-7-yl}methyl)methanesulfonamide] | 13 nM |  |  |  |  |
| CS(=O)(=O)Nc1ccc2c(c1)S(=O)(=O)N=C(C1=C(O)[C@@H]3C4C5C6CC7C4C7C(C65)[C@@H]3N(Cc3ccc(F)cc3)C1=O)N2 [Example 2, N-{3-[(4S,9R)-5-[(4-Fluorophenyl)methyl]-8-hydroxy-6-oxo-5-azahexacyclo[8.5.0.0^2,15.0^3,12.0^4,9.0^11,13]pentadec-7-en-7-yl]-1,1-dioxo-4H-1λ^6,2,4-benzothiadiazin-7-yl}methanesulfonamide] | 1 nM | 8 nM |  |  |  |
| CS(=O)(=O)Nc1ccc2c(c1)S(=O)(=O)N=C(C1=C(O)[C@H]3C4C5C6CC7C(C74)C(C65)[C@H]3N(Cc3ccc(F)cc3)C1=O)N2 [Example 3, N-{3-[(4R,9S)-5-[(4-Fluorophenyl)methyl]-8-hydroxy-6-oxo-5-azahexacyclo[8.5.0.0^2,15.0^3,12.0^4,9.0^11,13]pentadec-7-en-7-yl]-1,1-dioxo-4H-1λ^6,2,4-benzothiadiazin-7-yl}methanesulfonamide] | > 330 nM | > 330 nM |  |  |  |
| CS(=O)(=O)Nc1ccc2c(c1)S(=O)(=O)N=C(C1=C(O)[C@@H]3C4C5C6C7C4C7C(C65)[C@@H]3N(Cc3ccc(F)cc3)C1=O)N2 (stereo partly drawn) [Example 11, N-{3-[(1R,10S)-11-[(4-Fluorophenyl)methyl]-14-hydroxy-12-oxo-11-azahexacyclo[8.4.0.0^2,7.0^3,5.0^4,9.0^6,8]tetradec-13-en-13-yl]-1,1-dioxo-4H-1λ^6,2,4-benzothiadiazin-7-yl}methanesulfonamide] | 0.5 nM | 4 nM |  |  |  |
| CS(=O)(=O)Nc1ccc2c(c1)S(=O)(=O)N=C(C1=C(O)[C@H]3C4C5C6C7C(C74)C(C65)[C@H]3N(Cc3ccc(F)cc3)C1=O)N2 (stereo partly drawn) [Example 12] | > 330 nM | > 330 nM |  |  |  |
| CS(=O)(=O)Nc1ccc2c(c1)S(=O)(=O)N=C(C1=C(O)[C@@H]3CCC[C@@H]3N(Cc3ccc(F)cc3)C1=O)N2 [Example 17, reference compound] | 18 nM | 550 nM |  |  |  |
| CS(=O)(=O)Nc1ccc2c(c1)S(=O)(=O)N=C(C1=C(O)[C@@H]3[C@H]4CC[C@H](C4)[C@@H]3N(Cc3ccc(F)cc3)C1=O)N2 [Example 18, reference compound] | 2 nM | 45 nM |  |  |  |
| CS(=O)(=O)NCc1csc2c1S(=O)(=O)N=C(C1=C(O)[C@@H]3[C@H]4CC[C@H](C4)[C@@H]3N(Cc3ccc(F)cc3)C1=O)N2 [Example 19, reference compound] | 2 nM | 45 nM |  |  |  |
| CS(=O)(=O)Nc1ccc2c(c1)S(=O)(=O)N=C(C1=C(O)[C@@H]3C4CCC(CC4)[C@@H]3N(Cc3ccc(F)cc3)C1=O)N2 [Example 20, reference compound] | 0.6 nM | 12 nM |  |  |  |
| CS(=O)(=O)Nc1ccc2c(c1)S(=O)(=O)N=C(c1c(O)c3cccn3n(Cc3ccc(F)cc3)c1=O)N2 [Example 21, reference compound] | 13 nM | 400 nM |  |  |  |
